{"source": "patent US20260285850A1", "about": "“SUBSTITUTED OXAZOLIDINONES AND IMIDAZOLINONES AS HERBICIDES” (FMC CORPORATION, priority 2023, published 2026)", "type_in_all_cases": "in vivo", "key": {"rice (Oryza sativa)": {"test_system": "rice (Oryza sativa)", "assay": "Test B flooded paddy test, visual plant response rating 0-100", "settings": "250 g ai/ha, Flood, applied to paddy water, evaluated after 13 days", "how_it_was_run": "(§1)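 Visual scores versus untreated controls were recorded 13 days after treatment of greenhouse-held plants. At the 2-leaf stage, pots were flooded 3 cm above the soil surface and compounds added straight to the water.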"}, "[1]": {"test_system": "ducksalad (Heteranthera limosa)", "assay": "Test B flooded paddy test, visual plant response rating 0-100", "settings": "250 g ai/ha, Flood, applied to paddy water, evaluated after 13 days", "how_it_was_run": "as §1"}, "[2]": {"test_system": "barnyardgrass (Echinochloa crusgalli)", "assay": "Test B flooded paddy test, visual plant response rating 0-100", "settings": "250 g ai/ha, Flood, applied to paddy water, evaluated after 13 days", "how_it_was_run": "as §1"}, "[3]": {"test_system": "sedge, umbrella (small-flower umbrella sedge, Cyperus difformis)", "assay": "Test B flooded paddy test, visual plant response rating 0-100", "settings": "250 g ai/ha, Flood, applied to paddy water, evaluated after 13 days", "how_it_was_run": "as §1"}, "corn (Zea mays) [4]": {"test_system": "corn (Zea mays)", "assay": "Test A postemergence application, visual injury rating 0-100", "how_it_was_run": "(§2)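 Compounds formulated in a non-phytotoxic solvent with surfactant are sprayed onto soil of freshly planted loam-sand pots ahead of emergence, or onto emerged plants 2-10 cm tall. After a 10-day greenhouse period, each species is scored visually for injury against untreated controls.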"}, "[5]": {"test_system": "blackgrass (Alopecurus myosuroides)", "assay": "Test A postemergence application, visual injury rating 0-100", "how_it_was_run": "as §2"}, "[6]": {"test_system": "horseweed (Erigeron canadensis)", "assay": "Test A postemergence application, visual injury rating 0-100", "how_it_was_run": "as §2"}, "[7]": {"test_system": "barnyardgrass (Echinochloa crus-galli)", "assay": "Test A postemergence application, visual injury rating 0-100", "how_it_was_run": "as §2"}, "[8]": {"test_system": "ryegrass, Italian (italian ryegrass, Lolium multiflorum)", "assay": "Test A postemergence application, visual injury rating 0-100", "how_it_was_run": "as §2"}, "[9]": {"test_system": "palmer (palmer amaranth, palmer pigweed, Amaranthus palmeri)", "assay": "Test A postemergence application, visual injury rating 0-100", "how_it_was_run": "as §2"}, "[10]": {"test_system": "ragweed (common ragweed, Ambrosia artemisiifolia)", "assay": "Test A postemergence application, visual injury rating 0-100", "how_it_was_run": "as §2"}, "soybean (Glycine max) [11]": {"test_system": "soybean (Glycine max)", "assay": "Test A postemergence application, visual injury rating 0-100", "how_it_was_run": "as §2"}, "[12]": {"test_system": "wheat (Triticum aestivum)", "assay": "Test A postemergence application, visual injury rating 0-100", "how_it_was_run": "as §2"}, "[13]": {"test_system": "oat, wild (wild oat, Avena fatua)", "assay": "Test A postemergence application, visual injury rating 0-100", "how_it_was_run": "as §2"}, "kochia (Bassia scoparia) [14]": {"test_system": "kochia (Bassia scoparia)", "assay": "Test A postemergence application, visual injury rating 0-100", "how_it_was_run": "as §2"}, "[15]": {"test_system": "green foxtail (Setaria viridis)", "assay": "Test A postemergence application, visual injury rating 0-100", "how_it_was_run": "as §2"}, "corn (Zea mays) [16]": {"test_system": "corn (Zea mays)", "assay": "Test A preemergence soil spray, visual injury rating 0-100", "settings": "10 days", "how_it_was_run": "as §2"}, "[17]": {"test_system": "blackgrass (Alopecurus myosuroides)", "assay": "Test A preemergence soil spray, visual injury rating 0-100", "settings": "10 days", "how_it_was_run": "as §2"}, "[18]": {"test_system": "barnyardgrass (Echinochloa crus-galli)", "assay": "Test A preemergence soil spray, visual injury rating 0-100", "settings": "10 days", "how_it_was_run": "as §2"}, "[19]": {"test_system": "ryegrass, Italian (italian ryegrass, Lolium multiflorum)", "assay": "Test A preemergence soil spray, visual injury rating 0-100", "settings": "10 days", "how_it_was_run": "as §2"}, "[20]": {"test_system": "palmer (palmer amaranth, palmer pigweed, Amaranthus palmeri)", "assay": "Test A preemergence soil spray, visual injury rating 0-100", "settings": "10 days", "how_it_was_run": "as §2"}, "[21]": {"test_system": "ragweed (common ragweed, Ambrosia artemisiifolia)", "assay": "Test A preemergence soil spray, visual injury rating 0-100", "settings": "10 days", "how_it_was_run": "as §2"}, "soybean (Glycine max) [22]": {"test_system": "soybean (Glycine max)", "assay": "Test A preemergence soil spray, visual injury rating 0-100", "settings": "10 days", "how_it_was_run": "as §2"}, "[23]": {"test_system": "wheat (Triticum aestivum)", "assay": "Test A preemergence soil spray, visual injury rating 0-100", "settings": "10 days", "how_it_was_run": "as §2"}, "[24]": {"test_system": "oat, wild (wild oat, Avena fatua)", "assay": "Test A preemergence soil spray, visual injury rating 0-100", "settings": "10 days", "how_it_was_run": "as §2"}, "kochia (Bassia scoparia) [25]": {"test_system": "kochia (Bassia scoparia)", "assay": "Test A preemergence soil spray, visual injury rating 0-100", "settings": "10 days", "how_it_was_run": "as §2"}, "[26]": {"test_system": "green foxtail (Setaria viridis)", "assay": "Test A preemergence soil spray, visual injury rating 0-100", "settings": "10 days", "how_it_was_run": "as §2"}, "[27]": {"settings": "62 g ai/ha, postemergence, 10 days, 0 = no effect, 100 = complete control"}, "[28]": {"settings": "Postemergence, 16 g ai/ha, greenhouse 10 days, 0 no effect, 100 complete control"}, "[29]": {"settings": "62 g ai/ha, 0 = no effect, 100 = complete control"}}, "data": [{"smiles": "CC1(C(=O)NC2CC=C(C(=O)O)C2)CN(c2cc(F)cc(Cl)c2)C(=O)O1", "note": "(centres unmarked) [Compound 159]", "values": [{"measurement": "Plant response rating, Rice (0 to 100 scale, 0 is no effect and 100 is complete control)", "setting": "rice (Oryza sativa)", "result": 55}, {"measurement": "Plant response rating, Ducksalad (0 to 100 scale, 0 is no effect and 100 is complete control)", "setting": "[1]", "result": 100}, {"measurement": "Plant response rating, Barnyardgrass (0 to 100 scale, 0 is no effect and 100 is complete control)", "setting": "[2]", "result": 95}, {"measurement": "Plant response rating, Sedge, Umbrella (0 to 100 scale, 0 is no effect and 100 is complete control)", "setting": "[3]", "result": 100}, {"measurement": "Corn plant response rating (0-100)", "setting": "corn (Zea mays) [4]; [27]", "result": 100}, {"measurement": "Corn plant response rating (0 to 100 scale)", "setting": "corn (Zea mays) [4]; [28]", "result": 100}, {"measurement": "Blackgrass plant response rating (0-100)", "setting": "[5]; [27]", "result": 90}, {"measurement": "Blackgrass plant response rating (0 to 100 scale)", "setting": "[5]; [28]", "result": 80}, {"measurement": "Horseweed plant response rating (0-100)", "setting": "[6]; [27]", "result": 80}, {"measurement": "Horseweed plant response rating (0 to 100 scale)", "setting": "[6]; [28]", "result": 50}, {"measurement": "Barnyardgrass plant response rating (0-100)", "setting": "[7]; [27]", "result": 100}, {"measurement": "Barnyardgrass plant response rating (0 to 100 scale)", "setting": "[7]; [28]", "result": 100}, {"measurement": "Ryegrass, Italian plant response rating (0-100)", "setting": "[8]; [27]", "result": 100}, {"measurement": "Ryegrass, Italian plant response rating (0 to 100 scale)", "setting": "[8]; [28]", "result": 60}, {"measurement": "Pigweed, Palmer plant response rating (0-100)", "setting": "[9]; [27]", "result": 90}, {"measurement": "Pigweed, Palmer plant response rating (0 to 100 scale)", "setting": "[9]; [28]", "result": 80}, {"measurement": "Ragweed plant response rating (0-100)", "setting": "[10]; [27]", "result": 70}, {"measurement": "Ragweed plant response rating (0 to 100 scale)", "setting": "[10]; [28]", "result": 40}, {"measurement": "Soybean plant response rating (0-100)", "setting": "soybean (Glycine max) [11]; [27]", "result": 80}, {"measurement": "Soybean plant response rating (0 to 100 scale)", "setting": "soybean (Glycine max) [11]; [28]", "result": 80}, {"measurement": "Wheat plant response rating (0-100)", "setting": "[12]; [27]", "result": 90}, {"measurement": "Wheat plant response rating (0 to 100 scale)", "setting": "[12]; [28]", "result": 30}, {"measurement": "Oat, Wild plant response rating (0-100)", "setting": "[13]; [27]", "result": 30}, {"measurement": "Oat, Wild plant response rating (0 to 100 scale)", "setting": "[13]; [28]", "result": 30}, {"measurement": "Kochia plant response rating (0-100)", "setting": "kochia (Bassia scoparia) [14]; [27]", "result": 80}, {"measurement": "Kochia plant response rating (0 to 100 scale)", "setting": "kochia (Bassia scoparia) [14]; [28]", "result": 70}, {"measurement": "Foxtail, Green plant response rating (0-100)", "setting": "[15]; [27]", "result": 90}, {"measurement": "Foxtail, Green plant response rating (0 to 100 scale)", "setting": "[15]; [28]", "result": 70}, {"measurement": "Corn plant response rating", "setting": "corn (Zea mays) [16]; 16 g ai/ha, 0 to 100 scale", "result": 20}, {"measurement": "Corn plant response rating (0-100)", "setting": "corn (Zea mays) [16]; [29]", "result": 50}, {"measurement": "Blackgrass plant response rating", "setting": "[17]; 16 g ai/ha, 0 to 100 scale", "result": 0}, {"measurement": "Blackgrass plant response rating (0-100)", "setting": "[17]; [29]", "result": 0}, {"measurement": "Barnyardgrass plant response rating", "setting": "[18]; 16 g ai/ha, 0 to 100 scale", "result": 0}, {"measurement": "Barnyardgrass plant response rating (0-100)", "setting": "[18]; [29]", "result": 80}, {"measurement": "Ryegrass, Italian plant response rating", "setting": "[19]; 16 g ai/ha, 0 to 100 scale", "result": 30}, {"measurement": "Ryegrass, Italian plant response rating (0-100)", "setting": "[19]; [29]", "result": 90}, {"measurement": "Pigweed, Palmer plant response rating", "setting": "[20]; 16 g ai/ha, 0 to 100 scale", "result": 30}, {"measurement": "Pigweed, Palmer plant response rating (0-100)", "setting": "[20]; [29]", "result": 100}, {"measurement": "Ragweed plant response rating", "setting": "[21]; 16 g ai/ha, 0 to 100 scale", "result": 0}, {"measurement": "Ragweed plant response rating (0-100)", "setting": "[21]; [29]", "result": 0}, {"measurement": "Soybean plant response rating", "setting": "soybean (Glycine max) [22]; 16 g ai/ha, 0 to 100 scale", "result": 0}, {"measurement": "Soybean plant response rating (0-100)", "setting": "soybean (Glycine max) [22]; [29]", "result": 50}, {"measurement": "Wheat plant response rating", "setting": "[23]; 16 g ai/ha, 0 to 100 scale", "result": 50}, {"measurement": "Wheat plant response rating (0-100)", "setting": "[23]; [29]", "result": 90}, {"measurement": "Oat, Wild plant response rating", "setting": "[24]; 16 g ai/ha, 0 to 100 scale", "result": 0}, {"measurement": "Oat, Wild plant response rating (0-100)", "setting": "[24]; [29]", "result": 20}, {"measurement": "Kochia plant response rating", "setting": "kochia (Bassia scoparia) [25]; 16 g ai/ha, 0 to 100 scale", "result": 0}, {"measurement": "Kochia plant response rating (0-100)", "setting": "kochia (Bassia scoparia) [25]; [29]", "result": 90}, {"measurement": "Foxtail, Green plant response rating", "setting": "[26]; 16 g ai/ha, 0 to 100 scale", "result": 20}, {"measurement": "Foxtail, Green plant response rating (0-100)", "setting": "[26]; [29]", "result": 100}]}]}
